Read-outs that look alike come from different tables or passages of the source.
How the values were obtained:
[1] = hydrogen peroxide taken alone
[2] = for %-point H2O2 after storage / Appearance of catheter (0–5; 0 = perfect, 5 = unacceptable) / Appearance of swelling medium (0–5) / Loss of H2O2 (%/day) / pH after storage: 1 week
[3] = initial 0.2%-point H2O2, 60° C., no PEG 2000
[4] = initial 0.2%-point H2O2, 80° C., no PEG 2000
[5] = initial 0.4%-point H2O2, 60° C., no PEG 2000
[6] = initial 0.4%-point H2O2, 80° C., no PEG 2000
[7] = initial 0.8%-point H2O2, 60° C., no PEG 2000
[8] = initial 0.8%-point H2O2, 80° C., no PEG 2000
[9] = initial 1.6%-point H2O2, 60° C., 6% PEG 2000
[10] = initial 1.6%-point H2O2, 60° C., no PEG 2000
[11] = initial 1.6%-point H2O2, 80° C., 6% PEG 2000
[12] = initial 1.6%-point H2O2, 80° C., no PEG 2000

OO [Std H2O2, hydrogen peroxide]
speed of effect compared to a range of other anti-microbial agents [1]: rapid | H2O2 disappeared during storage ([2]; 1 week at 80° C., samples not containing PEG 2000, regardless of initial H2O2 concentration): 25-30% | %-point H2O2 after storage [2, 3]: 0.20 %-point | Appearance of catheter (0–5; 0 = perfect, 5 = unacceptable) [2, 3]: 0 | Appearance of swelling medium (0–5) [2, 3]: 0 | Loss of H2O2 (%/day) [2, 3]: 0.3 %/day | pH after storage [2, 3]: 5.64 | %-point H2O2 after storage [2, 4]: 0.15 %-point | Appearance of catheter (0–5; 0 = perfect, 5 = unacceptable) [2, 4]: 0 | Appearance of swelling medium (0–5) [2, 4]: 0 | Loss of H2O2 (%/day) [2, 4]: 3.5 %/day | pH after storage [2, 4]: 5.63 | %-point H2O2 after storage [2, 5]: 0.37 %-point | Appearance of catheter (0–5; 0 = perfect, 5 = unacceptable) [2, 5]: 0 | Appearance of swelling medium (0–5) [2, 5]: 0 | Loss of H2O2 (%/day) [2, 5]: 1.0 %/day | pH after storage [2, 5]: 5.63 | %-point H2O2 after storage [2, 6]: 0.29 %-point | Appearance of catheter (0–5; 0 = perfect, 5 = unacceptable) [2, 6]: 0 | Appearance of swelling medium (0–5) [2, 6]: 0 | Loss of H2O2 (%/day) [2, 6]: 3.8 %/day | pH after storage [2, 6]: 5.79 | %-point H2O2 after storage [2, 7]: 0.75 %-point | Appearance of catheter (0–5; 0 = perfect, 5 = unacceptable) [2, 7]: 0 | Appearance of swelling medium (0–5) [2, 7]: 0 | Loss of H2O2 (%/day) [2, 7]: 0.9 %/day | pH after storage [2, 7]: 5.63 | %-point H2O2 after storage [2, 8]: 0.58 %-point | Appearance of catheter (0–5; 0 = perfect, 5 = unacceptable) [2, 8]: 0 | Appearance of swelling medium (0–5) [2, 8]: 0 | Loss of H2O2 (%/day) [2, 8]: 4.0 %/day | pH after storage [2, 8]: 5.86 | %-point H2O2 after storage [2, 9]: 1.25 %-point | Appearance of catheter (0–5; 0 = perfect, 5 = unacceptable) [2, 9]: 1 | Appearance of swelling medium (0–5) [2, 9]: 0 | Loss of H2O2 (%/day) [2, 9]: 3.2 %/day | pH after storage [2, 9]: 5.13 | %-point H2O2 after storage [2, 10]: 1.41 %-point | Appearance of catheter (0–5; 0 = perfect, 5 = unacceptable) [2, 10]: 0 | Appearance of swelling medium (0–5) [2, 10]: 0 | Loss of H2O2 (%/day) [2, 10]: 1.7 %/day | pH after storage [2, 10]: 5.71 | %-point H2O2 after storage [2, 11]: 0.02 %-point | Appearance of catheter (0–5; 0 = perfect, 5 = unacceptable) [2, 11]: 3 | Appearance of swelling medium (0–5) [2, 11]: 0 | Loss of H2O2 (%/day) [2, 11]: 14.1 %/day | pH after storage [2, 11]: 3.46 | %-point H2O2 after storage [2, 12]: 1.13 %-point | Appearance of catheter (0–5; 0 = perfect, 5 = unacceptable) [2, 12]: 0 | Appearance of swelling medium (0–5) [2, 12]: 0 | Loss of H2O2 (%/day) [2, 12]: 4.2 %/day | pH after storage [2, 12]: 6.28

Source: US9028858B2 (Coloplast A/S, priority 2003, dated 2015)
